From ChEMBL document CHEMBL1201862, “PubChem BioAssay data set” (2004)
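In this assay, cells in 96-well plates receive the compound at five concentrations for 48 hours. Endpoints are linearly interpolated between the surrounding concentrations. Abbreviation: GI50, concentration required for 50% inhibition of growth.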 Active and inactive are the calls of the source. Cut-off read from the data, not from the text of the source: active = GI50 up to about 1.1 µM and inactive = higher.

Legend:
Test in all cases: inhibition of tumour cell growth, NCI panel, 48 h
[1] = system: OVCAR-5
[2] = system: UACC-62
[3] = system: A549
[4] = system: TK-10
[5] = system: NCI-H226
[6] = system: M14
[7] = system: SF-295
[8] = system: HCC 2998
[9] = system: SF-539
[10] = system: MDA-MB-231
[11] = system: SK-MEL-2
[12] = system: SNB-75
[13] = system: NCI/ADR-RES
[14] = system: SK-OV-3
[15] = system: LOX IMVI
[16] = system: RXF 393
[17] = system: COLO 205
[18] = system: HOP-92
[19] = system: U-251
[20] = system: BT-549

Row | Compound | GI50 [1] | GI50 [2] | GI50 [3] | GI50 [4] | GI50 [5] | GI50 [6] | GI50 [7] | GI50 [8] | GI50 [9] | GI50 [10] | GI50 [11] | GI50 [12] | GI50 [13] | GI50 [14] | GI50 [15] | GI50 [16] | GI50 [17] | GI50 [18] | GI50 [19] | GI50 [20]
1 | CCOC(=O)C(=CNC(=S)N/N=C1\C(=O)Nc2ccccc21)C(=O)OCC | > 100 µM (inactive) | > 100 µM (inactive) | > 100 µM (inactive) | 59.2 µM (inactive) | > 100 µM (inactive) | > 100 µM (inactive) | > 100 µM (inactive) | > 100 µM (inactive) | > 100 µM (inactive) | > 100 µM (inactive) | > 100 µM (inactive) | 21.5 µM (inactive) | 48.2 µM (inactive) | > 100 µM (inactive) | > 100 µM (inactive) | > 100 µM (inactive) | 99.1 µM (inactive) | 82 µM (inactive) | > 100 µM (inactive) | 
2 | Nc1nc(Cl)cc(NCC2(CO)CCC(O)C2)n1 (stereo not given) | > 100 µM (inactive) | > 100 µM (inactive) | > 100 µM (inactive) | > 100 µM (inactive) | > 100 µM (inactive) | > 100 µM (inactive) | > 100 µM (inactive) |  | > 100 µM (inactive) | > 100 µM (inactive) | > 100 µM (inactive) | > 100 µM (inactive) | > 100 µM (inactive) | > 100 µM (inactive) | > 100 µM (inactive) | > 100 µM (inactive) | > 100 µM (inactive) | > 100 µM (inactive) | > 100 µM (inactive) | > 100 µM (inactive)
3 | O=C(Oc1c(I)ccccc1=O)c1ccc([N+](=O)[O-])cc1 | 35.5 µM (inactive) | 22.6 µM (inactive) | 21.6 µM (inactive) | 30.8 µM (inactive) |  | 26.2 µM (inactive) | 23.2 µM (inactive) | 23.2 µM (inactive) | 17.9 µM (inactive) | 23.3 µM (inactive) | 20.5 µM (inactive) |  | 40.6 µM (inactive) |  | 19.6 µM (inactive) | 3.08 µM (inactive) | 14.7 µM (inactive) |  | 16.8 µM (inactive) | 18.6 µM (inactive)
4 | O=[N+]([O-])/C(C(Cl)=C(Cl)Cl)=C(\Nc1cccc2cccnc12)SCc1ccccc1 | 30.8 µM (inactive) | 23.3 µM (inactive) | 31.3 µM (inactive) |  | 20.3 µM (inactive) | 27.5 µM (inactive) | 18.7 µM (inactive) | 18.2 µM (inactive) | 16.9 µM (inactive) | 27.3 µM (inactive) | 12.6 µM (inactive) | 18.3 µM (inactive) | 21.2 µM (inactive) | 15.8 µM (inactive) |  |  | 18.8 µM (inactive) |  | 16.1 µM (inactive) | 16.9 µM (inactive)
5 | CN(C)CCNc1nc(-c2ccc3ccccc3c2)nc2[nH]cnc12 | 13.1 µM (inactive) | 10.8 µM (inactive) | 12.5 µM (inactive) | 6.38 µM (inactive) | 2.59 µM (inactive) | 11.4 µM (inactive) | 13.7 µM (inactive) | 1.99 µM (inactive) |  | 11.2 µM (inactive) | 14.6 µM (inactive) | 1.1 µM (active) | 7.33 µM (inactive) | 7.48 µM (inactive) | 4.55 µM (inactive) | 11.6 µM (inactive) | 7.55 µM (inactive) |  | 13.1 µM (inactive) | 11.2 µM (inactive)
6 | c1ccc(CSC2(SCc3ccccc3)CCCCC2)cc1 |  | > 10 µM (inactive) | > 10 µM (inactive) | > 10 µM (inactive) | > 10 µM (inactive) | > 10 µM (inactive) | > 10 µM (inactive) | > 10 µM (inactive) | > 10 µM (inactive) | > 10 µM (inactive) | > 10 µM (inactive) | > 10 µM (inactive) | > 10 µM (inactive) | > 10 µM (inactive) | > 10 µM (inactive) | > 10 µM (inactive) | > 10 µM (inactive) | > 10 µM (inactive) | > 10 µM (inactive) | 
7 | C/C(=C/CC[C@](C)(OC1OC(CO)C(O)C(O)C1OC1OC(C)C(O)C(O)C1O)[C@H]1CC[C@]2(C)[C@@H]1CC[C@@H]1[C@@]3(C)CC[C@H](O)C(C)(C)[C@@H]3C[C@H](O)[C@]12C)CO (stereo not given in full) | > 100 µM (inactive) | > 100 µM (inactive) | > 100 µM (inactive) | > 100 µM (inactive) | > 100 µM (inactive) | > 100 µM (inactive) | > 100 µM (inactive) |  | > 100 µM (inactive) | > 100 µM (inactive) |  | > 100 µM (inactive) | > 100 µM (inactive) | > 100 µM (inactive) | > 100 µM (inactive) | > 100 µM (inactive) | > 100 µM (inactive) | > 100 µM (inactive) | > 100 µM (inactive) | > 100 µM (inactive)
8 | CC1CC(N2CCOCC2)=Nc2ccccc2N1Cc1ccccc1 (stereo not given) | > 100 µM (inactive) | 44.6 µM (inactive) | > 100 µM (inactive) | > 100 µM (inactive) | 51.2 µM (inactive) | > 100 µM (inactive) | 57.7 µM (inactive) |  |  | > 100 µM (inactive) | > 100 µM (inactive) |  | 73.8 µM (inactive) | 61.2 µM (inactive) | 43.9 µM (inactive) | 16.1 µM (inactive) | 30.9 µM (inactive) |  | > 100 µM (inactive) | 66.2 µM (inactive)
